Measurements published in PMC3225368, “A Conformational Switch in the Active Site of BT_2972, a Methyltransferase from an Antibiotic Resistant Pathogen B. thetaiotaomicron” (PLoS ONE, 2011).
Marks after values point to notes of the source that are not given here.

Target: T1, BT_2972 (Bacteroides thetaiotaomicron, UniProt Q8A3I2)
T1 construct: 257 amino acids with noncleavable N-terminal (His)6 tag; pGS21a, E. coli BL21 (DE3); monomer in solution; first 12 residues disordered
Assay: isothermal titration calorimetry
Type: binding
Settings: 20 mM Tris-HCl pH 8.0, 200 mM NaCl, 24 °C; single-site model

T1 sequence (Q8A3I2 entry or part of it, change not shown): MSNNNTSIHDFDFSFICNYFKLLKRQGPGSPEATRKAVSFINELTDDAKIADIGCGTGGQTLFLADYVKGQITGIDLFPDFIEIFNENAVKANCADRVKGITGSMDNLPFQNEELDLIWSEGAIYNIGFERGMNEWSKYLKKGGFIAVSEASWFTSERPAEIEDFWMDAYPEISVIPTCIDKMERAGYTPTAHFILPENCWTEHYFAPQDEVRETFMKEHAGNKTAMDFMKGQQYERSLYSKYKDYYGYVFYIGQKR

## Nc1ncnc2c1ncn2[C@@H]1O[C@H](CSCC[C@H](N)C(=O)O)[C@@H](O)[C@H]1O [AdoHcy]
  Ka: 3.498×10^5 (±0.66×10^5)

## C[S+](CC[C@H](N)C(=O)O)C[C@H]1O[C@@H](n2cnc3c(N)ncnc32)[C@H](O)[C@@H]1O (some centres unmarked) [AdoMet]
  Ka: 0.395×10^5 (±0.0435×10^5)
